Results: US9796704B2, “Substituted quinazolines as receptor-type kinase inhibitors” (Symphony Evolution, Inc., priority 2002, dated 2017)

What was measured:
[1] = target: EphB4 (Homo sapiens (Human), UniProt P54760); assay: EphB4 kinase inhibition, 33P phosphoryl transfer assay (radiometric); type: biochemical
[2] = target: KDR (Homo sapiens (Human), UniProt P35968); assay: KDR kinase inhibition, luciferase-coupled chemiluminescent assay (LCCA); conditions: read-out: KDR IC50
Description: Kinase activity and compound inhibition are investigated using one or more of the three assay formats described below. The ATP concentrations are selected near its Michaelis-Menten constant (KM) for each individual kinase. Dose-response experiments are performed at ten different inhibitor concentrations in a 384-well plate format. […] Typically H is close to unity.
In the LCCA assays, kinase activity is measured by the ATP consumption that is accurately measured by luciferase-coupled chemiluminescence. Greiner 384-well white clear bottom medium binding plates are used for LCCA. Briefly the kinase reaction is initiated by mixing compounds, ATP and kinases in a 20 μL volume. At the end of the kinase reaction, a 20 μL luciferase-luciferin mix is added and the chemiluminescent signal is read on a Wallac Victor^2 reader.

[3] = target: EphA2 (Homo sapiens (Human), UniProt P29317); assay: EphA2 kinase inhibition, luciferase-coupled chemiluminescent assay (LCCA); conditions: read-out: EphA2 IC50
[4] = target: EGFR (Homo sapiens (Human), UniProt P00533); assay: EGFR kinase inhibition, luciferase-coupled chemiluminescent assay (LCCA); conditions: read-out: EGFR IC50

KDR, sequence (P35968 807-1356): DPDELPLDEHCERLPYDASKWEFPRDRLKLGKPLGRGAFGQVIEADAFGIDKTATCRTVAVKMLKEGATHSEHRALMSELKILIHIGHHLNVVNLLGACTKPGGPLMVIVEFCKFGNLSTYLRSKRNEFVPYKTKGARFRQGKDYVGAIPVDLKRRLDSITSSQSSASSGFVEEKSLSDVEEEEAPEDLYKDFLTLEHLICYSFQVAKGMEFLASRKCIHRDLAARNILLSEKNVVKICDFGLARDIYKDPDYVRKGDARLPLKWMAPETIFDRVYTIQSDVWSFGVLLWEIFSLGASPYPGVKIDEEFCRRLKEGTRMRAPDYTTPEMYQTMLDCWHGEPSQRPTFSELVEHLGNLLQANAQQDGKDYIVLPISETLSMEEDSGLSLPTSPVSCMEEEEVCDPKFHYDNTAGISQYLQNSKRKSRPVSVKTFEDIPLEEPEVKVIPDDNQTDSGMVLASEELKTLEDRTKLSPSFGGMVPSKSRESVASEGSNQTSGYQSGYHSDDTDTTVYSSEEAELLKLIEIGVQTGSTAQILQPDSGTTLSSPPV
EphA2, sequence (P29317 598-890): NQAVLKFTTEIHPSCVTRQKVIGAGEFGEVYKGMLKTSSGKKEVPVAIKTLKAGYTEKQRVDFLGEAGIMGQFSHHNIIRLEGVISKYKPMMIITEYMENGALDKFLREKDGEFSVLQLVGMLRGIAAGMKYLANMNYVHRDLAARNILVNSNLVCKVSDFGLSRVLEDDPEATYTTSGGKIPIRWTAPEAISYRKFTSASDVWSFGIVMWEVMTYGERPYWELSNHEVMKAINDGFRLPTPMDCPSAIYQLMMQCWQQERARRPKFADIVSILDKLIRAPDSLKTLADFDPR
EphB4, sequence (P54760 605-890): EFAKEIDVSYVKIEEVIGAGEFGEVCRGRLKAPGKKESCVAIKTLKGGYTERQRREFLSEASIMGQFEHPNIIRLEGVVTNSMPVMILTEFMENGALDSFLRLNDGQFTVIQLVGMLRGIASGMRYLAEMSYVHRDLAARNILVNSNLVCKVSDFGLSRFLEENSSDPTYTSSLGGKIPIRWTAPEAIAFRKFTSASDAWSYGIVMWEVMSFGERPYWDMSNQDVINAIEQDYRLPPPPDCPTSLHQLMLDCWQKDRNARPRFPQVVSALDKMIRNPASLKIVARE

Row | IC50 [1] [nM] | IC50 [2] [nM] | IC50 [3] [nM] | IC50 [4] [nM] | Compound
1 | 50 to 1000 | < 50 | 50 to 1000 | < 50 | COc1cc2c(Nc3ccc(Br)c(Cl)c3)ncnc2cc1O[C@H]1CO[C@H]2[C@@H]1OC[C@@H]2OC(F)F [Example 70, 1,4:3,6-dianhydro-2-O-[4-[(4-bromo-3-chlorophenyl)amino]-6-(methyloxy)quinazolin-7-yl]-5-O-(difluoromethyl)-L-iditol]
2 | < 50 | < 50 | < 50 | < 50 | COc1cc2c(Nc3cc(Cl)c(Br)cc3F)ncnc2cc1O[C@@H]1CO[C@@H]2[C@H]1OC[C@H]2F [Example 98, 1,4:3,6-dianhydro-5-O-[4-[(4-bromo-5-chloro-2-fluorophenyl)amino]-6-(methyloxy)quinazolin-7-yl]-2-deoxy-2-fluoro-D-iditol]
3 | < 50 | < 50 | 50 to 1000 | < 50 | COc1cc2c(Nc3ccc(Cl)c(Cl)c3)ncnc2cc1OCc1noc(-c2ccccc2)n1 [Example 235, N-(3,4-dichlorophenyl)-6-(methyloxy)-7-{[(5-phenyl-1,2,4-oxadiazol-3-yl)methyl]oxy}quinazolin-4-amine]
4 | 50 to 1000 | < 50 | 50 to 1000 | < 50 | COc1cc2c(Nc3ccc(Cl)c(Cl)c3)ncnc2cc1OCc1cc(Br)cc(Br)c1 [Example 232, 7-{[(3,5-dibromophenyl)methyl]oxy}-N-(3,4-dichlorophenyl)-6-(methyloxy)quinazolin-4-amine]
5 | < 50 | < 50 | < 50 | < 50 | COc1cc2c(Nc3cc(Cl)c(Cl)c(Cl)c3)ncnc2cc1O[C@@H]1CO[C@@H]2[C@H]1OC[C@H]2F [Example 107, 1,4:3,6-dianhydro-2-deoxy-2-fluoro-5-O-{6-(methyloxy)-4-[(3,4,5-trichlorophenyl)amino]quinazolin-7-yl}-D-iditol]
6 | < 50 | < 50 | – | < 50 | COc1cc2c(Nc3ccc(Cl)c(Cl)c3)ncnc2cc1OCC1CN(C)CCCO1 (centres unmarked) [Example 155, N-(3,4-dichlorophenyl)-7-{[(4-methyl-1,4-oxazepan-2-yl)methyl]oxy}-6-(methyloxy)quinazolin-4-amine]
7 | < 50 | < 50 | < 50 | < 50 | CCN1CCC(c2nc(COc3cc4ncnc(Nc5ccc(Cl)c(Cl)c5)c4cc3OC)cs2)CC1 [Example 242, N-(3,4-dichlorophenyl)-7-({[2-(1-ethylpiperidin-4-yl)-1,3-thiazol-4-yl]methyl}oxy)-6-(methyloxy)quinazolin-4-amine]
8 | < 50 | < 50 | 50 to 1000 | < 50 | COc1cc2c(Nc3ccc(Cl)c(Cl)c3)ncnc2cc1OCc1noc(C2CCN(C(=O)OC(C)(C)C)CC2)n1 [Example 197, 1,1-dimethylethyl 4-[3-({[4-[(3,4-dichlorophenyl)amino]-6-(methyloxy)quinazolin-7-yl]oxy}methyl)-1,2,4-oxadiazol-5-yl]piperidine-1-carboxylate]
9 | < 50 | < 50 | < 50 | < 50 | COc1cc2c(Nc3ccc(Br)cc3F)ncnc2cc1O[C@@H]1CO[C@@H]2[C@H]1OC[C@H]2F [Example 108, 1,4:3,6-dianhydro-5-O-[4-[(4-bromo-2-fluorophenyl)amino]-6-(methyloxy)quinazolin-7-yl]-2-deoxy-2-fluoro-D-iditol]
10 | < 50 | < 50 | – | < 50 | COc1cc2c(Nc3ccc(Cl)c(Cl)c3)ncnc2cc1OCc1noc(CN(C)C)n1 [Example 138, N-(3,4-dichlorophenyl)-7-[({5-[(dimethylamino)methyl]-1,2,4-oxadiazol-3-yl}methyl)oxy]-6-(methyloxy)quinazolin-4-amine]
11 | < 50 | < 50 | < 50 | < 50 | COc1cc2c(Nc3ccc(C(F)(F)F)cc3Br)ncnc2cc1O[C@@H]1CO[C@@H]2[C@H]1OC[C@H]2F [Example 125, 1,4:3,6-dianhydro-5-O-[4-{[2-bromo-4-(trifluoromethyl)phenyl]amino}-6-(methyloxy)quinazolin-7-yl]-2-deoxy-2-fluoro-D-iditol]
12 | 50 to 1000 | < 50 | 50 to 1000 | < 50 | CCN1CCCC(c2nc(COc3cc4ncnc(Nc5ccc(Cl)c(Cl)c5)c4cc3OC)no2)C1 (centres unmarked) [Example 239, N-(3,4-dichlorophenyl)-7-({[5-(1-ethylpiperidin-3-yl)-1,2,4-oxadiazol-3-yl]methyl}oxy)-6-(methyloxy)quinazolin-4-amine]
13 | < 50 | < 50 | < 50 | < 50 | COc1cc2c(Nc3ccc(Br)c(Cl)c3)ncnc2cc1O[C@H]1CO[C@@H]2[C@@H](OC)[C@H](OC)O[C@@H]21 [Example 79, methyl 3,6-anhydro-5-O-[4-[(4-bromo-3-chlorophenyl)amino]-6-(methyloxy)quinazolin-7-yl]-2-O-methyl-alpha-L-idofuranoside]
14 | < 50 | < 50 | < 50 | < 50 | COc1cc2c(Nc3ccc(Cl)c(Cl)c3Cl)ncnc2cc1O[C@@H]1CO[C@@H]2[C@H]1OC[C@H]2F [Example 106, 1,4:3,6-dianhydro-2-deoxy-2-fluoro-5-O-{6-(methyloxy)-4-[(2,3,4-trichlorophenyl)amino]quinazolin-7-yl}-D-iditol]
15 | < 50 | < 50 | – | < 50 | COc1cc2c(Nc3cc(F)c(Br)c(Cl)c3)ncnc2cc1O[C@@H]1CO[C@@H]2[C@H]1OC[C@H]2F [Example 104, 1,4:3,6-dianhydro-5-O-[4-[(4-bromo-3-chloro-5-fluorophenyl)amino]-6-(methyloxy)quinazolin-7-yl]-2-deoxy-2-fluoro-D-iditol]
16 | < 50 | < 50 | – | < 50 | COc1cc2c(Nc3ccc(Cl)c(Cl)c3)ncnc2cc1OCc1noc(C)c1-c1ccccc1 [Example 161, N-(3,4-dichlorophenyl)-6-(methyloxy)-7-{[(5-methyl-4-phenylisoxazol-3-yl)methyl]oxy}quinazolin-4-amine]
17 | < 50 | < 50 | < 50 | < 50 | COc1cc2c(Nc3cc(F)cc(F)c3)ncnc2cc1O[C@@H]1CO[C@@H]2[C@H]1OC[C@H]2F [Example 94, 1,4:3,6-dianhydro-2-deoxy-5-O-[4-[(3,5-difluorophenyl)amino]-6-(methyloxy)quinazolin-7-yl]-2-fluoro-D-iditol]
18 | < 50 | < 50 | – | < 50 | COc1cc2c(Nc3ccc(Cl)c(Cl)c3F)ncnc2cc1O[C@@H]1CO[C@@H]2[C@H]1OC[C@H]2F [Example 97, 1,4:3,6-dianhydro-2-deoxy-5-O-[4-[(3,4-dichloro-2-fluorophenyl)amino]-6-(methyloxy)quinazolin-7-yl]-2-fluoro-D-iditol]
19 | < 50 | < 50 | < 50 | < 50 | COc1cc2c(Nc3ccc(Cl)c(Cl)c3)ncnc2cc1OCc1nc(CN2CCCN(C)CC2)cs1 [Example 210, N-(3,4-dichlorophenyl)-7-[({4-[(4-methyl-1,4-diazepan-1-yl)methyl]-1,3-thiazol-2-yl}methyl)oxy]-6-(methyloxy)quinazolin-4-amine]
20 | < 50 | < 50 | < 50 | < 50 | COc1cc2c(Nc3ccc(Cl)c(Cl)c3)ncnc2cc1OCc1nc(-c2ccncc2)cs1 [Example 203, N-(3,4-dichlorophenyl)-6-(methyloxy)-7-{[(4-pyridin-4-yl-1,3-thiazol-2-yl)methyl]oxy}quinazolin-4-amine]
21 | < 50 | < 50 | < 50 | < 50 | COc1cc2c(Nc3ccc(Br)cc3Cl)ncnc2cc1O[C@@H]1CO[C@@H]2[C@H]1OC[C@H]2F [Example 96, 1,4:3,6-dianhydro-5-O-[4-[(4-bromo-2-chlorophenyl)amino]-6-(methyloxy)quinazolin-7-yl]-2-deoxy-2-fluoro-D-iditol]
22 | < 50 | < 50 | 50 to 1000 | < 50 | COc1cc2c(Nc3ccc(Cl)c(Cl)c3)ncnc2cc1OCc1nc(N2CCN(C)CC2)no1 [Example 218, N-(3,4-dichlorophenyl)-6-(methyloxy)-7-({[3-(4-methylpiperazin-1-yl)-1,2,4-oxadiazol-5-yl]methyl}oxy)quinazolin-4-amine]
23 | – | < 50 | < 50 | < 50 | COc1cc2c(Nc3ccc(F)c(C(F)(F)F)c3)ncnc2cc1O[C@@H]1CO[C@@H]2[C@H]1OC[C@H]2F [Example 89, 1,4:3,6-dianhydro-2-deoxy-2-fluoro-5-O-[4-{[4-fluoro-3-(trifluoromethyl)phenyl]amino}-6-(methyloxy)quinazolin-7-yl]-D-iditol]

Row | Compound | IC50 [1] [nM] | IC50 [2] [nM] | IC50 [3] [nM] | IC50 [4] [nM]
24 | COc1cc2c(Nc3ccc(Cl)c(Cl)c3)ncnc2cc1OCc1nc(CN2CCN(C)CC2)no1 [Example 140, N-(3,4-dichlorophenyl)-6-(methyloxy)-7-[({3-[(4-methylpiperazin-1-yl)methyl]-1,2,4-oxadiazol-5-yl}methyl)oxy]quinazolin-4-amine] | < 50 | < 50 | – | < 50
25 | N-(3,4-dichlorophenyl)-6-(methyloxy)-7-{[(5-piperidin-2-yl-1,2,4-oxadiazol-3-yl)methyl]oxy}quinazolin-4-amine hydrochloride [Example 31] | < 50 | < 50 | – | < 50
